Source: ChEMBL document CHEMBL1201862, “PubChem BioAssay data set” (2004)
Blank lines part the entries; values can stand above or below the compound they belong to. Activity calls are given as the source filed them.

What was measured:
[1] = growth inhibition of MALME3 cells – cell-based, CellTiter-Glo luminescence, dry powder, set 5, orthogonal assay for MITF inhibitor project, dose response (AID 651584); type: functional; settings: MALME-3
[2] = inhibitors of TRPM1-promoter reporter in SK-MEL-5 – cell-based, luciferase, dry powder, set 8, MITF inhibitor project, dose response (AID 624430); type: functional
[3] = growth inhibition of SK-MEL-5 melanoma cells – cell-based, CellTiter-Glo luminescence, dry powder, set 8, orthogonal assay for MITF inhibitor project, dose response (AID 651586); type: functional
[4] = inhibitors of TRPM1-promoter reporter in SK-MEL-5 – cell-based, luciferase, dry powder, set 9, MITF inhibitor project, dose response (AID 651588); type: functional
[5] = MITF: Counter assay: A375 proliferation Measured in Cell-Based System Using Plate Reader - 2084-03_Inhibitor_Dose_DryPowder_Activity_Set8.; type: functional; settings: A-375
[6] = cytotoxicity in MITF-independent A375 cells – cell-based, CellTiter-Glo luminescence, dry powder, set 9, counter-screen for MITF modulator project, dose response (AID 651591); type: functional; settings: A-375
[7] = MITF Orthogonal Assay: SK-MEL-5 CTG Assay Measured in Cell-Based System Using Plate Reader - 2084-02_Inhibitor_Dose_DryPowder_Activity_Set7.; type: functional
[8] = MITF Orthogonal Assay: MALME3 CTG Assay Measured in Cell-Based System Using Plate Reader - 2084-04_Inhibitor_Dose_DryPowder_Activity_Set6.; type: functional; settings: MALME-3
Protein Tat = Protein Tat (Human immunodeficiency virus type 1 group M subtype B (isolate HXB2)(HIV-1), UniProt P04608); type: functional;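 note: tat binding to TAR RNA read out by fluorescence polarization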
[9] = CellTiter-Glo luminescence survival assay, SW480 colon tumor line, concentration-response curve, half-maximal inhibitory concentration (AID 1117338); type: functional
[10] = HCT116 cell viability decrease, GSK3B pretreatment – CellTiter-Glo, IC50, dose response (AID 1117339); type: functional; settings: HCT-116
[11] = cytotoxicity toward HT-29 cells – cell-based, CellTiter-Glo luminescence, IC50, dose response (AID 1117330); type: functional
[12] = Reduced DLD-1 viability, concentration-response, CellTiter-Glo luminescence (AID 1117352); type: functional
[13] = cytotoxicity toward Colo320 cells – cell-based, CellTiter-Glo luminescence, IC50, dose response (AID 1117334); type: functional; settings: COLO 320
[14] = RKO cell viability reduction, dose response, CellTiter-Glo luminescence (AID 1117322); type: functional
[15] = cytotoxicity toward HCT116 cells – cell-based, CellTiter-Glo luminescence, IC50, dose response (AID 1117332); type: functional; settings: HCT-116
[16] = SNU-C1 cell viability reduction, dose response, CellTiter-Glo luminescence (AID 1117323); type: functional, cell-based

Sequence of Protein Tat (P04608 whole entry): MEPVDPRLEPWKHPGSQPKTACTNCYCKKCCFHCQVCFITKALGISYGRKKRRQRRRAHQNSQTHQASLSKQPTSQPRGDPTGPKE

Structure (SMILES): O=C1C(Nc2ccc(Br)cc2)=C(N2CCCCC2)C(=O)c2ccccc21
AC50 [1]: 15.7 µM (active)
AC50 [2]: 4.44 µM (active)
AC50 [3]: > 70 µM (inactive)
AC50 [4]: 15.3 µM (active)
AC50 [5]: 47.2 µM (active)
AC50 [6]: 32.8 µM (active)
AC50 [7]: 4.57 µM (active)
AC50 [8]: 15.7 µM (active)

IC50 (Protein Tat): > 100 µM (active)
Structure (SMILES): CCSC1=C(C#N)C(c2cccs2)/C(=C(\O)OC)C(C)=N1 (configuration not stated)

Structure (SMILES): CSc1ccc2c(c1)N(CCC1CCCCN1C)c1ccccc1S2 (configuration not stated) [THIORIDAZINE]
IC50 [9]: 3.71 µM (active)
IC50 [10]: 8.11 µM (inactive)
IC50 [11]: 5.9 µM (inactive)
IC50 [12]: > 20 µM (inactive)
IC50 [13]: 7.92 µM (inactive)
IC50 [14]: 5.49 µM (inactive)
IC50 [15]: > 20 µM (inactive)
IC50 [16]: 2.9 µM (active)
